In patent US5162354A, “3-halo-5-halomethyl-2-oxazolidinones and their use as microbicides” (Buckman Laboratories International, Inc., priority 1991, dated 1992) one finds MIC data, which are given here for 1 molecule.

Values after ≈ are worked out from the molar mass of the structure shown. Like-named read-outs stand apart in the source and are kept apart here.

Holding throughout (type): cell-based
Experiment [1] deals with Enterobacter aerogenes. Description: Basal salts method, minimum inhibitory concentration against Enterobacter aerogenes. The conditions noted are these: Klebsiella aerogenes, at least 80% kill. The method, then: Compounds 1-4 of Examples 3-6 of the present invention were tested by the basal salts method described in U.S. Pat. No. 2,881,070 at column 5, beginning at line 12 and extending to column 6, line 53. […] The minimum inhibitory concentrations are those in which a percentage kill of at least 80% is obtained.

Experiment [2] deals with Staphylococcus aureus. Briefly: Efficacy of Sanitizers Recommended for Non-Food Contact Surfaces, ASTM E 1153-87 (Staphylococcus aureus). The conditions noted are these: 99.9% kill, read-out: Minimum inhibitory concentration required to inhibit microorganisms. The protocol:
(§1) This test method is used to evaluate the antimicrobial efficacy of sanitizers on precleaned non-porous, non-food contact surfaces. This test was performed according to the test procedure E 1153-87 of ASTM. […] For most of the sanitizers, effectiveness is hampered (or minimum inhibitory concentrations go up) in the presence of an organic load. Therefore, the compounds of the present invention are tested both in the presence and absence of 5% organic load (Bovine albumin fraction V, Sigma Chemical Company).

Experiment [3] concerns Aspergillus niger. Briefly: Growth inhibiting activity on the fungus Aspergillus niger. As to conditions: Aspergillus niger pH 6.0; completely prevented growth; read-out: Minimum inhibitory concentration against fungi. The protocol: The microorganism growth inhibiting activity of compounds 1-4 on the fungus Aspergillus niger was evaluated. The method is described in U.S. Pat. No. 4,945,109, column 5 beginning at line 47 to column 6, line 33. The disclosure of U.S. Pat. No. 4,945,109 is incorporated herein by reference.

Experiment [4] relates to Streptococcus faecalis. Briefly: AOAC Disinfectant Swimming Pool Assay (Streptococcus faecalis). As to conditions: Enterococcus faecalis, 10 min, contact time 10 minutes, read-out: MIC (Minimum inhibitory concentration required to inhibit microorganisms). The protocol: (§2) This example was based on the procedure described in AOAC (Association of Official Analytical Chemists) Official Methods of Analysis (1986) pp 75-77. The results obtained by this method are suitable for presumptive evidence of acceptability of products for disinfecting swimming pool water. The results obtained for Compound 1 in a contact time of 10 minutes are noted in Table IV.

Experiment [5] concerns Escherichia coli. Briefly: Efficacy of Sanitizers Recommended for Non-Food Contact Surfaces, ASTM E 1153-87 (Escherichia coli). As to conditions: 99.9% kill, read-out: Minimum inhibitory concentration required to inhibit microorganisms. The protocol:
as §1

Experiment [6] deals with Phormidium inundatum. Description: Growth inhibiting activity against algae in Difco Algae Broth (Phormidium inundatum). As to conditions: 672 h, pH 7, read-out: Minimum inhibitory concentration against algae. The protocol:
The growth inhibiting activity of the method of the invention against the three algae Chlorella pyrenoidosa, Chlorococcum hypnosporum and Phormidium inundatum was evaluated in Difco Algae Broth, the content of which was as follows:
Forty-gram portions of the algae medium were added to 250 mL Pyrex Erlenmeyer flasks fitted with loose metal caps and then sterilized. Each of the following substances was then added to the flasks in the order listed:
1. Sterile algae medium as required to bring the total weight of the contents of each flask to 50 grams, after allowing for all subsequent additions specified below.
2. A solution of one of compounds 1-4 or of a control agent to be evaluated in each test, to give the concentration desired in parts per million by weight.
3. Chlorella pyrenoidosa, Chlorococcum hypnosporum and Phormidium inundatum in amounts sufficient to give excellent growth in the controls after 14 days. This was achieved by adding 1 milliliter of a 14 day old culture having luxuriant growth. The Chlorella pyrenoidosa culture was obtained from American Type Culture Collection No. 7516; Chlorococcum hypnosporum, from the University of TX at Austin; and Phormidium inundatum, WI No. 1093, from the University of WA.
As a control experiment, WSCP was used as a positive control agent. WSCP is a known toxicant which kills C. pyrenoidosa at 2 ppm, C. hypnosporum at 2ppm, and P. inundatum at 10 ppm. Control experiments were also carried out where no toxicants were employed. In the algicidal tests, the growth of algae in the nutrient medium is lush green and can be seen with the naked eye. Because the minimum inhibitory concentrations of the compounds in this example are those which result in complete inhibition, evaluation of the test results is not subjective.
After the inoculum of the test algae was added, the flasks were incubated at a temperature of 28°±2° C. under fluorescent illumination of 250 foot-candle intensity (8 hours light, 16 hours darkness) for a period adequate for growth in the controls (those portions of medium which contained no toxicant). Observations of growth were made at 7-day intervals. Minimum inhibitory concentrations are those that prevented complete growth after 28 days.

The test system of experiment [7] is Pseudomonas aeruginosa. Briefly: AOAC Disinfectant Swimming Pool Assay (Pseudomonas aeruginosa). As to conditions: 10 min, contact time 10 minutes, read-out: MIC (Minimum inhibitory concentration required to inhibit microorganisms). The protocol:
as §2

Where [8] appears, read: With 5% organic load (bovine albumin).

Take `O=C1OC(CCl)CN1Br` (stereo not shown) [Compound 1, 3-Bromo-5-chloromethyl-2-oxazolidinone]: the MIC in experiment [1] (pH 6.0) is 10 µg/mL; in experiment [1] (pH 8.0), 10 µg/mL; in experiment [2] (setting [8]), 160 µg/mL (≈ 746 µM); in experiment [2] (Without organic load) it was 80 µg/mL (≈ 373 µM); in experiment [3] it was 10 µg/mL (≈ 46.6 µM); in experiment [4], 80 µg/mL (≈ 373 µM). In addition, the MIC came to 160 µg/mL (≈ 746 µM) in experiment [5] (setting [8]), 80 µg/mL (≈ 373 µM) in experiment [5] (Without organic load), 2 µg/mL (≈ 9.33 µM) in experiment [6] and 100 µg/mL (≈ 466 µM) in experiment [7].
